The series concerns synovial membrane of knee joints of rabbits. In words: Intra-articular injection into rabbit knee joints, histological scoring of the synovial membrane after 24 hours. Format: in vivo. The note with it: for Prevention of irritation on intra-articular injection (in words): glycerol and glucitol in comparable circumstances, data not shown. The procedure: After 24 hours the rabbits were sacrificed, the joints were removed and histological studies of the synnovial membrane were carried out. Each of the following histological findings was scored 0 to 3. a. Synovial lining hyperplasia b. Presence of Fibrin c. Inflammatory infiltration d. Necrosis […]

Where [1] appears, read: rabbit knee, intra-articular injection of the solution itself, sacrifice 24 h after injection, sulphate.
[2] abbreviates: rabbit knee, intra-articular injection of the solution itself, sacrifice 24 h after injection.

Consider `CCCCCCCCCCCCOS(=O)(=O)[O-].[Na+]` [0.2% SLS in saline, sodium lauryl sulphate], for which the “Histological score of synovial membrane (synovial lining hyperplasia, fibrin, inflammatory infiltration, necrosis, each scored 0 to 3), Mean” value (“Histological score of synovial membrane” below) under setting [1] is listed as 1.4.
With `CCCCCCCCCCCCOS(=O)(=O)[O-].[Na+]` [0.5% SLS in saline (positive control), sodium lauryl sulphate], the “Histological score of synovial membrane” value worked out at 5.8 (rabbit knee, intra-articular injection of the solution itself, sacrifice 24 h after injection, listed as 0.5% SLS in saline, sulphate) and 5.8 under setting [1].
For the compound `OC[C@@H](O)[C@H](O)[C@@H](O)CO` [4.5% Xylitol in distilled water, Xylitol], the “Histological score of synovial membrane” value under setting [2] worked out at 1.4.
On to `OC[C@@H](O)[C@@H](O)[C@H](O)[C@H](O)CO` [5.4% Mannitol in distilled water, Mannitol], for which the “Histological score of synovial membrane” value under setting [2] came out at 3.4. The “Prevention of irritation on intra-articular injection (in words)” value (“Prevention of irritation” for short) (rabbit knee) is “does not prevent irritation”.
On to `OC[C@@H](O)[C@@H](O)[C@H](O)[C@@H](O)CO` [glucitol], for which, under “rabbit knee”, the “Prevention of irritation” value is “lack of prevention of irritation”.
For `OCC(O)CO` [glycerol], the “Prevention of irritation” value (rabbit knee) is listed as “lack of prevention of irritation”.
As to “sodium Hyaluronate [1% sodium Hyaluronate in saline]”, the “Histological score of synovial membrane” value (rabbit, in vivo) is on record as 1.0.

For the origin of these results see patent publication US9913808B2, “Injectable pharmaceutical compositions for the treatment of joints” (priority 2010, dated 2018).
